For 5 compounds, IC50 and viability, T/C results are on record in PubChem BioAssay AID1963867 (Molecular Pharmacology Branch, DTP, NCI, 2024).

The structures appear in SMILES notation.

This assay deals with KRAS-mutant PDC tumor spheroid with HUVEC/MSC, viability. In words: Anticancer human tumor 327498-153-R-J2-PDC patient-derived uterine carcinosarcoma cell line growth inhibition [KRAS2]. As to conditions: for viability, T/C: stronger effect = lower value. The method, boiled down:
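Combination screen of spheroid viability in tumor-cell co-cultures with endothelial (HUVEC) and mesenchymal stem cell stroma. Each agent was tested in half-log dilutions, topping at clinical Cmax or at 10 microM without a known Cmax.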

Where [1] appears, read: curve of first compound, second compound 0.1 µM.
Setting [2] is: curve of first compound, second compound 0.316 µM.
[3] abbreviates: curve of first compound, second compound 1 µM.
Setting [4] is: curve of first compound, second compound 3.16 µM.
Where [5] appears, read: curve of first compound, second compound 10 µM.
[6] abbreviates: second compound 0.1 µM, first compound 0.01 µM.
Setting [7] is: second compound 0.1 µM, first compound 0.0316 µM.
Setting [8] is: second compound 0.1 µM, first compound 0.1 µM.
The mark [9] stands for this setting: second compound 0.316 µM, first compound 0.01 µM.
Setting [10] is: second compound 0.316 µM, first compound 0.0316 µM.
[11] abbreviates: second compound 0.316 µM, first compound 0.1 µM.
[12] abbreviates: second compound 1 µM, first compound 0.01 µM.
Setting [13] is: second compound 1 µM, first compound 0.0316 µM.
[14] abbreviates: second compound 1 µM, first compound 0.1 µM.
Where [15] appears, read: second compound 3.16 µM, first compound 0.01 µM.
Setting [16] is: second compound 3.16 µM, first compound 0.0316 µM.
Setting [17] is: second compound 3.16 µM, first compound 0.1 µM.
[18] abbreviates: second compound 10 µM, first compound 0.01 µM.
The mark [19] stands for this setting: second compound 10 µM, first compound 0.0316 µM.
The mark [20] stands for this setting: second compound 10 µM, first compound 0.1 µM.
The mark [21] stands for this setting: second compound 0.1 µM, first compound 0.316 µM.
Where [22] appears, read: second compound 0.1 µM, first compound 1 µM.
[23] abbreviates: second compound 0.1 µM, first compound 3.16 µM.
Setting [24] is: second compound 0.316 µM, first compound 0.316 µM.
Setting [25] is: second compound 0.316 µM, first compound 1 µM.
[26] abbreviates: second compound 0.316 µM, first compound 3.16 µM.
[27] abbreviates: second compound 1 µM, first compound 0.316 µM.
[28] abbreviates: second compound 1 µM, first compound 1 µM.
Where [29] appears, read: second compound 1 µM, first compound 3.16 µM.
Where [30] appears, read: second compound 3.16 µM, first compound 0.316 µM.
Setting [31] is: second compound 3.16 µM, first compound 1 µM.
[32] abbreviates: second compound 3.16 µM, first compound 3.16 µM.
The mark [33] stands for this setting: second compound 10 µM, first compound 0.316 µM.
Where [34] appears, read: second compound 10 µM, first compound 1 µM.
[35] abbreviates: second compound 10 µM, first compound 3.16 µM.
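Further: spheroids exposed to agents for seven days before reading.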
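Wherever viability, T/C is given: 100% = DMSO vehicle wells so lower means fewer viable cells.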

For the compound `CC(C)n1nc(-c2ccc3oc(N)nc3c2)c2c(N)ncnc21` + CNCc1ccccc1-c1csc(C(C)Nc2nc(C)nc3cc(OC)c(OC)cc23)c1, the IC50 – broadly, the concentration that inhibits the measured activity by half – by setting is: under setting [1], 4.87 nM; under setting [2], 4.21 nM; under setting [3], 2.3 nM; under setting [4], < 0.316 nM; under setting [5], < 0.316 nM. The viability, T/C (as a rule, the ratio of treated to control) is 87.6% (second compound 0.1 µM, first compound 0.000316 µM); 80.3% (second compound 0.1 µM, first compound 0.001 µM); 59.9% (second compound 0.1 µM, first compound 0.00316 µM); 33.4% under setting [6]; 13.8% under setting [7]; 7.32% under setting [8]. For the same compound, the viability, T/C is, setting by setting: (second compound 0.316 µM, first compound 0.000316 µM) 76.8%; (second compound 0.316 µM, first compound 0.001 µM) 73.2%; (second compound 0.316 µM, first compound 0.00316 µM) 56%; under setting [9], 30.4%; under setting [10], 10.3%; under setting [11], 6.25%. In addition, the viability, T/C reads like this: (second compound 1 µM, first compound 0.000316 µM) 68.2%; (second compound 1 µM, first compound 0.001 µM) 63.9%; (second compound 1 µM, first compound 0.00316 µM) 43.4%; under setting [12], 25.6%; under setting [13], 7.89%; under setting [14], 4.25%. Also, the viability, T/C (second compound 3.16 µM, first compound 0.000316 µM) is 20.1%; the viability, T/C (second compound 3.16 µM, first compound 0.001 µM) was 0.14%; the viability, T/C (second compound 3.16 µM, first compound 0.00316 µM) was 1.09%; the viability, T/C under setting [15] is 0.2%; the viability, T/C under setting [16] is 0.04%; the viability, T/C under setting [17] was 1.36%. For the same compound, the viability, T/C is, setting by setting: (second compound 10 µM, first compound 0.000316 µM) 0.49%; (second compound 10 µM, first compound 0.001 µM) 0.14%; (second compound 10 µM, first compound 0.00316 µM) 0.93%; under setting [18], 0.51%; under setting [19], 0.24%; under setting [20], 0.39%.
As to `CC(=O)OC12COC1CC(O)C1(C)C(=O)C(O)C3=C(C)C(OC(=O)C(O)C(NC(=O)OC(C)(C)C)c4ccccc4)CC(O)(C(OC(=O)c4ccccc4)C21)C3(C)C` (centres undefined), the viability, T/C by setting is: (compound 0.01 µM) 8.03% [middle of 5 runs]; (compound 0.0316 µM) 6.44% [middle of 5 runs]; (compound 0.1 µM) 6.83% [middle of 5 runs]; (compound 0.316 µM) 7.35% [middle of 5 runs]; (compound 1 µM) 10.6% [middle of 5 runs]; (compound 3.16 µM) 12.8% [middle of 5 runs]. The IC50 (curve of compound) was < 10 nM.
For `CC(C)NCC(C(=O)N1CCN(c2ncnc3c2C(C)CC3O)CC1)c1ccc(Cl)cc1` (centres undefined) + CC1OCC2(CCN(c3cnc(Sc4ccnc(N)c4Cl)c(N)n3)CC2)C1N, the concentration for half-maximal inhibition (IC50) is, setting by setting: under setting [1], 105 nM; under setting [2], < 31.6 nM; under setting [3], < 31.6 nM; under setting [4], < 31.6 nM; under setting [5], < 31.6 nM. In addition, the viability, T/C is 59.3% under setting [7]; 52.5% under setting [8]; 32.5% under setting [21]; 22.5% under setting [22]; 16.5% under setting [23]; 11.9% (second compound 0.1 µM, first compound 10 µM). Also, the viability, T/C was 43.1% under setting [10]; 33% under setting [11]; 16.4% under setting [24]; 13.8% under setting [25]; 10.8% under setting [26]; 7.02% (second compound 0.316 µM, first compound 10 µM). Besides, the viability, T/C by setting is: under setting [13], 29.1%; under setting [14], 20.7%; under setting [27], 14.5%; under setting [28], 8.77%; under setting [29], 7.91%; (second compound 1 µM, first compound 10 µM) 5.17%. The viability, T/C runs as follows: under setting [16], 20.9%; under setting [17], 15.3%; under setting [30], 9.04%; under setting [31], 6.16%; under setting [32], 5.92%; (second compound 3.16 µM, first compound 10 µM) 4.91%. The viability, T/C is, setting by setting: under setting [19], 16.4%; under setting [20], 12.2%; under setting [33], 9.27%; under setting [34], 6.34%; under setting [35], 4.8%; (second compound 10 µM, first compound 10 µM) 3.45%.
Regarding `CC(=O)OC12COC1CC(O)C1(C)C(=O)C(O)C3=C(C)C(OC(=O)C(O)C(NC(=O)OC(C)(C)C)c4ccccc4)CC(O)(C(OC(=O)c4ccccc4)C21)C3(C)C` (centres undefined) + C=CC(=O)N1CCN(c2nc(=O)n(-c3c(C)ccnc3C(C)C)c3nc(-c4c(O)cccc4F)c(F)cc23)C(C)C1, the IC50 reads like this: under setting [1], < 10 nM; under setting [2], < 10 nM; under setting [3], < 10 nM; under setting [4], < 10 nM; under setting [5], < 10 nM. Further, the viability, T/C was 8.43% under setting [6]; 6.6% under setting [7]; 5.43% under setting [8]; 6.55% under setting [21]; 9.48% under setting [22]; 11.1% under setting [23]. Moreover, the viability, T/C was 7.73% under setting [9]; 6.11% under setting [10]; 5.72% under setting [11]; 7.34% under setting [24]; 8.77% under setting [25]; 13.1% under setting [26]. Moreover, the viability, T/C reads like this: under setting [12], 9.81%; under setting [13], 5.71%; under setting [14], 10.5%; under setting [27], 8.73%; under setting [28], 8.75%; under setting [29], 10.7%. Moreover, the viability, T/C runs as follows: under setting [15], 9.54%; under setting [16], 7.63%; under setting [17], 7.71%; under setting [30], 10.1%; under setting [31], 11.2%; under setting [32], 12.2%. Moreover, the viability, T/C under setting [18] is 11.1%; the viability, T/C under setting [19] was 9.72%; the viability, T/C under setting [20] was 12.5%; the viability, T/C under setting [33] is 13.3%; the viability, T/C under setting [34] is 12.3%; the viability, T/C under setting [35] was 12.8%.
Regarding `CC(C)NCC(C(=O)N1CCN(c2ncnc3c2C(C)CC3O)CC1)c1ccc(Cl)cc1` (centres undefined), the viability, T/C by setting is: (compound 0.0316 µM) 97.8% [middle of 5 runs]; (compound 0.1 µM) 77.2% [middle of 5 runs]; (compound 0.316 µM) 63.1% [middle of 5 runs]; (compound 1 µM) 48.3% [middle of 5 runs]; (compound 3.16 µM) 37.9% [middle of 5 runs]; (compound 10 µM) 25.4% [middle of 5 runs]. The IC50 (curve of compound) was 982 nM [middle of 5 runs].
